Data taken from US9750746B2 (priority 2013, dated 2017).
“Also recorded” adds a separate entry of the source.

Columns and labels:
Aβ25-35 treated mice [1] = experiment: combination studies in the Aβ25-35 model in mice, all parameters examined; assay type: in vivo, Male Swiss OF-1 mice; conditions: for minimal active dose: each drug, Aβ25-35 model in mice, ip; for efficacy of the drug alone in the combination studies with memantine: single drug, once 20 min before Aβ25-35
Procedure: (a) Administration schedule, (b) Y-maze test; (c) passive avoidance response. Administration schedule: mice received ANAVEX2-73 (0.1, 0.3 mg/kg i.p.) and/or donepezil (0.25, 0.5 mg/kg i.p.) once 20 min before Aβ25-35 (9 nmol i.c.v.) at day 0. Animals were examined between days 7 and 9.
(a) Administration schedule, (b) Y-maze test; (c) passive avoidance response. Administration schedule: mice received ANAVEX2-73 (0.1, 0.3 mg/kg i.p.) and/or memantine (0.5, 1 mg/kg i.p.) once 20 min before Aβ25-35 (9 nmol i.c.v.) at day 0. Animals were examined between days 7 and 9.
The spontaneous alternation (YMT) and passive avoidance (PAT) responses are shown. […] The 100% protection level represents the Sc.Aβ/V group and the 0% level, the Aβ25-35/V group. Only the data with the lowest doses tested are shown.
(§1) Male Swiss OF-1 mice (Depré, St Doulchard, France), aged 7-9 weeks and weighing 32±2 g were used in this study. Animals were housed in plastic cages in groups. They had free access to food and water, except during behavioral experiments, and they were kept in a regulated environment (23±1° C., 40-60% humidity) under a 12 h light/dark cycle (light on at 07:00 am). Experiments were carried out between 09:00 am and 05:00 pm, in an experimental room within the animal facility. Mice were habituated 30 min before each experiment. Animal procedures were conducted in adherence with the EU Directive 86-609.
(§2) Donepezil (E2020) was from Eisai Tsukuba Research Laboratories (Tsukuba, Japan) and memantine was from Sigma-Aldrich (St Quentin-Fallavier, France). Drugs were solubilized in physiological saline solution and administered intraperitoneally (i.p.) in a volume of 100 μl per 20 g body weight. […] (Aβ25-35) and scrambled β25-35 (Sc.Aβ) peptides from Genepep (France) were solubilized in distilled water at 3 mg/ml and stored at 20° C. until use. Peptides were aged at 37° C. for 4 days and injected i.c.v. (3 μl per mouse).
(§3) Spatial working memory was examined through the measure of spontaneous alternation performance in the Y-maze. Animals were allowed to explore the Y-shaped maze during 8 min and the number of alternations (consecutive exploration of the 3 arms) and total number of arms entered was recorded.
(§4) Contextual long-term memory was measured using the step-through type passive avoidance test. During training, animals were placed in the white compartment of the two-compartment apparatus. The step-through latency to enter the dark compartment was recorded and mice received an electric shock (0.1 mA, 3 s). During the retention session, performed 24 h after training, the step-through latency to enter the dark compartement and escape latency, to re-exit, were recorded.

Aβ25-35 treated mice [2] = experiment: spontaneous alternation in the Y-maze, Aβ25-35 treated mice; assay type: in vivo, Male Swiss OF-1 mice; conditions: hydrochloride
Procedure: Administration schedule: mice received ANAVEX2-73 (0.1-1 mg/kg i.p.) once-a-day between days −7 and −1 and Aβ25-35 (9 nmol i.c.v.) at day 0. Animals were examined between days 7 and 9.
Administration schedule: mice received Aβ25-35 (9 nmol i.c.v.) at day 0 and ANAVEX2-73 (0.1, 0.3 mg/kg i.p.) once-a-day between days 7 and 13. Animals were examined between days 14 and 16.
Administration schedule: mice received ANAVEX2-73 (0.1, 0.3 mg/kg i.p.) and/or donepezil (0.25, 0.5 mg/kg i.p.) once 20 min before Aβ25-35 (9 nmol i.c.v.) at day 0. Animals were examined between days 7 and 9.
Administration schedule: mice received ANAVEX2-73 (0.1, 0.3 mg/kg i.p.) and/or memantine (0.5, 1 mg/kg i.p.) once 20 min before Aβ25-35 (9 nmol i.c.v.) at day 0. Animals were examined between days 7 and 9.
as §1
Donepezil (E2020) was from Eisai Tsukuba Research Laboratories (Tsukuba, Japan) and memantine was from Sigma-Aldrich (St Quentin-Fallavier, France). Drugs were solubilized in physiological saline solution and administered intraperitoneally (i.p.) in a volume of 100 μl per 20 g body weight. The amyloid-β[25-35] (Aβ25-35) and scrambled β25-35 (Sc.Aβ) peptides from Genepep (France) were solubilized in distilled water at 3 mg/ml and stored at 20° C. until use. Peptides were aged at 37° C. for 4 days and injected i.c.v. (3 μl per mouse).
as §3

Aβ25-35 treated mice [3] = experiment: step-through passive avoidance, Aβ25-35 treated mice; assay type: in vivo, Male Swiss OF-1 mice; conditions: hydrochloride
Procedure: as §1, §2, §4

Aβ25-35 treated mice [4] = experiment: lipid peroxidation in the hippocampus, Aβ25-35 treated mice; assay type: in vivo, Male Swiss OF-1 mice; conditions: hydrochloride
Procedure: Administration schedule: mice received ANAVEX2-73 (0.1-1 mg/kg i.p.) once-a-day between days −7 and −1 and Aβ25-35 (9 nmol i.c.v.) at day 0. Animals were examined between days 7 and 9. Their brain dissected out and assessed for lipid peroxidation (LPO) at day 10.
Administration schedule: mice received Aβ25-35 (9 nmol i.c.v.) at day 0 and ANAVEX2-73 (0.1, 0.3 mg/kg i.p.) once-a-day between days 7 and 13. Animals were examined between days 14 and 16. Their brain dissected out and assessed for lipid peroxidation (LPO) at day 17.
as §1
Tetrahydro-N,N-dimethyl-2,2-diphenyl-3-furanmethanamine hydrochloride (ANAVEX2-73) was synthesized in the laboratory (Anavex Life Sciences, Greece). […] Drugs were solubilized in physiological saline solution and administered intraperitoneally (i.p.) in a volume of 100 μl per 20 g body weight. The amyloid-β[25-35] (Aβ25-35) and scrambled β25-35 (Sc.Aβ) peptides from Genepep (France) were solubilized in distilled water at 3 mg/ml and stored at 20° C. until use. Peptides were aged at 37° C. for 4 days and injected i.c.v. (3 μl per mouse).
Mouse hippocampus was homogenized in cold methanol, centrifuged at 1,000 g 5 min and supernatant collected. Homogenate was added to a solution of FeSO4 1 mM, H2SO4 0.25 M, xylenol orange 1 mM and incubated for 30 min at RT. Absorbance was measured at 580 nm (A5801), and 10 μl of cumene hydroperoxide (CHP) 1 mM was added and incubated for 30 min at RT. Absorbance was measured at 580 nm (A5802). Lipid peroxidation was determined as CHP equivalents: CHP eq.=A5801/A5802×[CHP (nmol)]×dilution, and expressed as percentage of the Sc.Aβ/V-treated group value.

σ1 = σ1 (Homo sapiens, UniProt Q99720); conditions: believed to bind; cited from earlier work
σ2 sites = σ2 sites (Homo sapiens, UniProt Q5BJF2); conditions: reported binding analyses; cited from earlier work
[5] = tested on: muscarinic M1-M4 receptors; conditions: cited from earlier work
sodium channel site 2 = conditions: screening profile; cited from earlier work
Aβ25-35 treated mice [6] = conditions: cited from earlier work
[7] = delayed administration: 0.3 mg/kg ip (FIG. 2: 0.1, 0.3) once a day day 7 to 13 after Aβ25-35, measured 14 days after Aβ25-35, 0.3 mg/kg
[8] = early administration: 0.1, 0.3 mg/kg ip (FIG. 1: 0.1-1) once a day day -7 to -1 before Aβ25-35 (day 0), 7 days after Aβ25-35
[9] = administered before the Aβ25-35 peptide
[10] = mice one week after icv Aβ25-35 (Villard et al. 2011)

σ1, sequence (Q99720 whole entry): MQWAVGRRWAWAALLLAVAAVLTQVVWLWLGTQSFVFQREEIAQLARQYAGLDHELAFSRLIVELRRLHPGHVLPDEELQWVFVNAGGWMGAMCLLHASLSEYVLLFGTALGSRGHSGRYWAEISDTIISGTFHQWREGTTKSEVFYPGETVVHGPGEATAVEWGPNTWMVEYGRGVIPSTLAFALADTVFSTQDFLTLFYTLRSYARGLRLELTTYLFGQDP
σ2 sites, sequence (Q5BJF2 whole entry): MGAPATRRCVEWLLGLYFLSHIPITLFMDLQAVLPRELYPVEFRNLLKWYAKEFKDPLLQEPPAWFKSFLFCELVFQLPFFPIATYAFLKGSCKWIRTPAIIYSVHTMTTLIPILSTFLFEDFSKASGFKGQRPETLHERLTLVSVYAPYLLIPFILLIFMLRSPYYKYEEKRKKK

## Donepezil [reference compound]
Aβ25-35 treated mice [1]
  minimal active dose: 0.25 mg/kg

## CC12CC3CC(C)(C1)CC(N)(C3)C2 [memantine, Memantine, reference compound]
Aβ25-35 treated mice [1]
  efficacy of the drug alone in the combination studies with memantine: therapeutic efficacy

## CN(C)CC1CCOC1(c1ccccc1)c1ccccc1.Cl (stereo not shown) [ANAVEX2-73, Tetrahydro-N,N-dimethyl-2,2-diphenyl-3-furanmethanamine hydrochloride]
Aβ25-35 treated mice [2]; [7]
  Aβ25-35-induced memory deficits, spontaneous alternation in the Y maze: significant attenuations; also recorded: effective
Aβ25-35 treated mice [2]; [8]
  Aβ25-35-induced memory deficits, spontaneous alternation in the Y maze: significantly prevented; also recorded: blocked
Aβ25-35 treated mice [3]; [7]
  Aβ25-35-induced memory deficits, passive avoidance response: significant attenuations; also recorded: effective
Aβ25-35 treated mice [3]; [8]
  Aβ25-35-induced memory deficits, passive avoidance response: significantly prevented; also recorded: blocked
Aβ25-35 treated mice [4]; [7]
  Aβ25-35-induced lipid peroxidation increase (toxicity): significant attenuations; also recorded: effective
Aβ25-35 treated mice [4]; [8]
  Aβ25-35-induced lipid peroxidation in the hippocampus (toxicity): significantly prevented; also recorded: blocked
Aβ25-35 treated mice [1]
  minimal active dose: 0.1 mg/kg
  efficacy of the drug alone in the combination studies with memantine: therapeutic efficacy
σ1
  affinity for sigma-1 receptors: low micromolar range
σ2 sites
  affinity for σ2 sites: no affinity
[5]; believed to bind
  affinity for muscarinic acetylcholine receptors: low micromolar range
[5]; screening profile, range over M1-M4
  IC50: 3.3 to 5.2 µM
Sodium channel site 2
  IC50: 5.1 µM
Aβ25-35 treated mice [6]; Lahmy et al. 2013
  Aβ25-35-induced P-Akt decrease: blocked
  Aβ25-35-induced P-GSK-3β increase: blocked
Aβ25-35 treated mice [6]; [9]
  dose preventing hippocampal cell loss: 0.3 to 1 mg/kg
  dose preventing oxidative stress: 0.3 to 1 mg/kg
  dose preventing the appearance of Aβ25-35-induced learning deficits: 0.03 mg/kg
Aβ25-35 treated mice [6]; in the dose-range tested
  hyperphosphorylation of Tau on pathological epitopes (AT-100 clone): attenuated
  hyperphosphorylation of Tau on physiological epitopes (AT-8 antibody clone): attenuated
Aβ25-35 treated mice [6]; [10]
  caspases induction: attenuating
  cellular loss: attenuating
  learning and memory deficits: attenuating
  oxidative stress: attenuating
Aβ25-35 treated mice [6]; mouse, in vivo
  Aβ25-35-induced endogenous Aβ1-42 seeding: decreasing
Aβ25-35 treated mice [6]; one week after icv injection of Aβ25-35 peptide
  reversing the learning impairments: effective
